Measurements as given in patent US10093630B2, “Pyrazole compounds and methods of making and using same” (ABIDE THERAPEUTICS, INC., priority 2014, dated 2018).
Where two headings read alike, the source gives them in different places.

Columns and labels:
Assay in all cases: In vitro competitive activity-based protein profiling (gel-based, FP-Rh or HT-01 probe)
Format in all cases: biochemical
FAAH = biological target: T1, FAAH (Mus musculus, UniProt O08914); details: for inhibition at 1 µM: 1 μM inhibitor, read-out: % Inhibition at 1 μM, B = FAAH; for inhibition at 10 µM: 10 μM inhibitor, read-out: % Inhibition at 10 μM, B = FAAH
T1 construct: Proteomes (mouse brain membrane fraction or cell lysates); from tissue; host or cells: mouse brain membrane fraction (or cell lysates, not specified)
T1 sequence (O08914 1-579): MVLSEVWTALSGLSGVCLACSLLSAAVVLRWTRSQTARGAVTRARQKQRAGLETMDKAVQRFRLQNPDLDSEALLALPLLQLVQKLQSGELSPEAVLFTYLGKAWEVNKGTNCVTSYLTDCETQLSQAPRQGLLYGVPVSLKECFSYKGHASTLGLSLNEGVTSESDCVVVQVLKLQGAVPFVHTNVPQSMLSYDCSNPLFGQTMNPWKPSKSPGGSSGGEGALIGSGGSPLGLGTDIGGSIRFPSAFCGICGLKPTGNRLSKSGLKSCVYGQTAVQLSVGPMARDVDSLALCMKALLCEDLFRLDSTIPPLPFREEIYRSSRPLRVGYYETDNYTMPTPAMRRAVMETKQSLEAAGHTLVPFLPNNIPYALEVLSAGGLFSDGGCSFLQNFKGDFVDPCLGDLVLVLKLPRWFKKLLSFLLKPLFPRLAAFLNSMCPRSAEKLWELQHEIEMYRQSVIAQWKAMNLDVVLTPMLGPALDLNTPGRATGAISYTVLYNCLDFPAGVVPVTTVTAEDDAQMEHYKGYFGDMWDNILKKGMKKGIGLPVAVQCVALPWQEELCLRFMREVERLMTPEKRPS
Outline: (§1)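 Gel-based read-out: fluorescent band intensity after SDS-PAGE reflected remaining hydrolase activity. Inhibitors were preincubated 30 min at 37° C with 1.0 mg/mL mouse brain membrane or lysate proteome before a further 30 min at 37° C with FP-Rh or HT-01 probe.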

PLA2G7 = biological target: T2, PLA2G7 (Mus musculus, UniProt Q60963); details: for inhibition at 1 µM: 1 μM inhibitor, read-out: % Inhibition at 1 μM, D = PLA2G7; for inhibition at 10 µM: 10 μM inhibitor, read-out: % Inhibition at 10 μM, D = PLA2G7
T2 construct: Proteomes (mouse brain membrane fraction or cell lysates); from tissue; host or cells: mouse brain membrane fraction (or cell lysates, not specified)
T2 sequence (Q60963 22-440): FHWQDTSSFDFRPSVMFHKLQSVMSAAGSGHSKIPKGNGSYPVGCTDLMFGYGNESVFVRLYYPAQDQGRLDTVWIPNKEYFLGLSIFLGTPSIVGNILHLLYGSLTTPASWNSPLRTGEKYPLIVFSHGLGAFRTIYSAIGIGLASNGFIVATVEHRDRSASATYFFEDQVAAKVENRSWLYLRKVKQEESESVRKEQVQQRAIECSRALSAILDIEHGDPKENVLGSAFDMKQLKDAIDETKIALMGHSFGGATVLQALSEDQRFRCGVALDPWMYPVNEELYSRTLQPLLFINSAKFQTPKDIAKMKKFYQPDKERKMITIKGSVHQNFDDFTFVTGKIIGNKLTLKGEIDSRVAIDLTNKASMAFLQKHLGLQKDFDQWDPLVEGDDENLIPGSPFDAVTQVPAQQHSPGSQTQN
Outline: as §1

ABHD6 = biological target: T3, ABHD6 (Mus musculus, UniProt Q8R2Y0); details: for inhibition at 1 µM: 1 μM inhibitor, read-out: % Inhibition at 1 μM, C = ABHD6; for inhibition at 10 µM: 10 μM inhibitor, read-out: % Inhibition at 10 μM, C = ABHD6; for IC50: mouse brain membrane fraction or cell lysates, 30 min preincubation at 37° C., read-out: Mouse (IC50 value, nM) ABHD6
T3 construct: Proteomes (mouse brain membrane fraction or cell lysates); from tissue; host or cells: mouse brain membrane fraction (or cell lysates, not specified)
T3 sequence (Q8R2Y0 1-336): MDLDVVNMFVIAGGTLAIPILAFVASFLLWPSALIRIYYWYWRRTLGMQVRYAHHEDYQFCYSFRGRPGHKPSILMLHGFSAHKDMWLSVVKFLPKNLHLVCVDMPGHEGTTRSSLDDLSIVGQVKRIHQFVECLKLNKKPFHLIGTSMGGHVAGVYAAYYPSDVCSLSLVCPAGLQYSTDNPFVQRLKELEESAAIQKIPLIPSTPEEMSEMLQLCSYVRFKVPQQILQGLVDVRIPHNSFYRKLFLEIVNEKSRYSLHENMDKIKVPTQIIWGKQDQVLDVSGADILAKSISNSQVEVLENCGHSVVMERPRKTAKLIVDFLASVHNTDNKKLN
Outline: as §1

MAGL = biological target: T4, MAGL (Mus musculus, UniProt O35678); details: for inhibition at 1 µM: 1 μM inhibitor; for inhibition at 10 µM: 10 μM inhibitor
T4 construct: Proteomes (mouse brain membrane fraction or cell lysates); from tissue; host or cells: mouse brain membrane fraction (or cell lysates, not specified)
T4 sequence (O35678 1-303): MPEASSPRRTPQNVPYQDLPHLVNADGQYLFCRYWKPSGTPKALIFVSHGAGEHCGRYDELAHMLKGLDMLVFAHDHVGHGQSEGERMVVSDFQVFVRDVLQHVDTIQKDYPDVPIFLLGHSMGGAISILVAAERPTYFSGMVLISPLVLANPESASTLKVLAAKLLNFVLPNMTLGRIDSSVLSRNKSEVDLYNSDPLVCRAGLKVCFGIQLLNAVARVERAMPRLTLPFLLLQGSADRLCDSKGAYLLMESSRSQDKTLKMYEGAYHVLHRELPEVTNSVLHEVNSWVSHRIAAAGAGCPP
Outline: as §1

inhibition at 1 µM (FAAH; gel-based competitive ABPP) [%] | inhibition at 1 µM (PLA2G7; gel-based competitive ABPP) [%] | inhibition at 1 µM (ABHD6; gel-based competitive ABPP) [%] | inhibition at 1 µM (MAGL; gel-based competitive ABPP) [%] | inhibition at 10 µM (FAAH) [%] | inhibition at 10 µM (PLA2G7) [%] | inhibition at 10 µM (ABHD6) [%] | inhibition at 10 µM (MAGL) [%] | inhibition at 1 µM (FAAH) [%] | inhibition at 1 µM (PLA2G7) [%] | inhibition at 1 µM (ABHD6) [%] | inhibition at 1 µM (MAGL) [%] | Structure (SMILES) | also measured
< 25 | < 25 | < 25 | < 25 |  |  |  |  |  |  |  |  | Cc1cnn(C(=O)NCc2ccc(OCc3ccccc3)cc2)c1 [Example 293, N-(4-(Benzyloxy)benzyl)-4-methyl-1H-pyrazole-1-carboxamide] | 
 |  |  |  | > 75 | > 75 | > 75 | > 75 | > 75 | > 75 | > 75 | > 75 | O=C(N1CCN(Cc2ccc3ccccc3c2)CC1)n1cc(I)cn1 [Example 14, (4-Iodo-1H-pyrazol-1-yl)(4-(naphthalen-2-ylmethyl)piperazin-1-yl)methanone] | 
> 75 | < 25 | > 75 | > 75 |  |  |  |  |  |  |  |  | N#Cc1cnn(C(=O)N2CCCN(Cc3ccc(Oc4ccccc4)cc3)CC2)c1 [Example 301, 1-(4-(4-Phenoxybenzyl)-1,4-diazepane-1-carbonyl)-1H-pyrazole-4-carbonitrile] | 
 |  |  |  | > 75 | > 75 | > 75 | > 75 | > 75 | 25 to 75 | > 75 | < 25 | CN1CCN(C(=O)n2cc(C(F)(F)F)cn2)CC1 [Example 151, (4-Methylpiperazin-1-yl)(4-(trifluoromethyl)-1H-pyrazol-1-yl)methanone] | 
 |  |  |  | 25 to 75 | > 75 | > 75 | < 25 | < 25 | 25 to 75 | < 25 | < 25 | CC(=O)N1CCCN(C(=O)n2cc(C(F)(F)F)cn2)CC1 [Example 154, 1-(4-(4-(trifluoromethyl)-1H-pyrazole-1-carbonyl)-1,4-diazepan-1-yl)ethanone] | 
 |  |  |  | 25 to 75 | > 75 | > 75 | > 75 | < 25 | > 75 | < 25 | > 75 | O=C(c1ccccc1)N1CCN(C(=O)n2cc(C(F)(F)F)cn2)CC1 [Example 153, (4-Benzoylpiperazin-1-yl)(4-(trifluoromethyl)-1H-pyrazol-1-yl)methanone] | 
 |  |  |  | > 75 | > 75 | > 75 | > 75 | < 25 | < 25 | > 75 | < 25 | O=C(c1cnn(C(=O)N2CCN(Cc3ccc4c(c3)OCO4)CC2)c1)N1CCOCC1 [Example 51, (4-(Benzo[d][1,3]dioxol-5-ylmethyl)piperazin-1-yl)(4-(morpholine-4-carbonyl)-1H-pyrazol-1-yl)methanone] | IC50 (ABHD6): 100 to 1000 nM
 |  |  |  | > 75 | > 75 | > 75 | > 75 | > 75 | < 25 | > 75 | > 75 | N#Cc1cnn(C(=O)N2CCN(Cc3ccc(-c4ccccc4)cc3OCc3ccccc3)CC2)c1 [Example 146, 1-(4-((3-(Benzyloxy)biphenyl-4-yl)methyl)piperazine-1-carbonyl)-1H-pyrazole-4-carbonitrile] | 

More lines, now with the values behind:

Structure (SMILES) | inhibition at 1 µM (FAAH; gel-based competitive ABPP) [%] | inhibition at 1 µM (PLA2G7; gel-based competitive ABPP) [%] | inhibition at 1 µM (ABHD6; gel-based competitive ABPP) [%] | inhibition at 1 µM (MAGL; gel-based competitive ABPP) [%] | inhibition at 10 µM (FAAH) [%] | inhibition at 10 µM (PLA2G7) [%] | inhibition at 10 µM (ABHD6) [%] | inhibition at 10 µM (MAGL) [%] | inhibition at 1 µM (FAAH) [%] | inhibition at 1 µM (PLA2G7) [%] | inhibition at 1 µM (ABHD6) [%] | inhibition at 1 µM (MAGL) [%] | also measured
O=C(c1cnn(C(=O)N2CCN(Cc3cccnc3)CC2)c1)N1CCC1 [Example 88, Azetidin-1-yl(1-(4-(pyridin-3-ylmethyl)piperazine-1-carbonyl)-1H-pyrazol-4-yl)methanone] |  |  |  |  | 25 to 75 | > 75 | > 75 | < 25 |  |  |  |  | 
N#Cc1cnn(C(=O)N2CCN(Cc3ccc(-c4ccccc4)cc3Cl)CC2)c1 [Example 140, 1-(4-((3-chlorobiphenyl-4-yl)methyl)piperazine-1-carbonyl)-1H-pyrazole-4-carbonitrile] |  |  |  |  | > 75 | > 75 | > 75 | > 75 | > 75 | > 75 | > 75 | > 75 | 
O=C(N1CCN(Cc2ccccc2N2CCOCC2)CC1)n1cc(C(F)(F)F)cn1 [Example 281, (4-(2-Morpholinobenzyl)piperazin-1-yl)(4-(trifluoromethyl)-1H-pyrazol-1-yl)methanone] | > 75 | > 75 | > 75 | > 75 |  |  |  |  |  |  |  |  | 
CCN(Cc1ccc(N2CCOCC2)cc1)C(=O)n1cc(C)cn1 [Example 265, N-Ethyl-4-methyl-N-(4-morpholinobenzyl)-1H-pyrazole-1-carboxamide] | < 25 | < 25 | < 25 | < 25 |  |  |  |  |  |  |  |  | 
CCN(Cc1cccc(N2CCOCC2)c1)C(=O)n1cc(Cl)cn1 [Example 266, 4-Chloro-N-ethyl-N-(3-morpholinobenzyl)-1H-pyrazole-1-carboxamide] | > 75 | < 25 | < 25 | < 25 |  |  |  |  |  |  |  |  | inhibition at 10 µM (FAAH; gel-based competitive ABPP): > 75%; IC50 (FAAH; mouse brain membrane fraction or cell lysates, 30 min preincubation at 37° C., read-out: Mouse (IC50 value, nM) FAAH): 100 to 1000 nM; inhibition at 10 µM (PLA2G7; gel-based competitive ABPP): < 25%; IC50 (PLA2G7; mouse brain membrane fraction or cell lysates, 30 min preincubation at 37° C.): > 1000 nM; inhibition at 10 µM (ABHD6; gel-based competitive ABPP): > 75%; IC50 (ABHD6): > 1000 nM; inhibition at 10 µM (MAGL; gel-based competitive ABPP): > 75%; IC50 (MAGL; mouse brain membrane fraction or cell lysates, 30 min preincubation at 37° C., read-out: Mouse (IC50 value, nM) MAGL): > 1000 nM
O=C(N1CCN(Cc2ccc(OCc3ccccc3)cc2)CC1)n1cccn1 [Example 19, (4-(4-(Benzyloxy)benzyl)piperazin-1-yl)(1H-pyrazol-1-yl)methanone] |  |  |  |  | > 75 | < 25 | > 75 | > 75 | > 75 | < 25 | < 25 | 25 to 75 | 
